For two compounds, IC50 and inhibition results are on record in patent publication US8785459B2, “Quinazoline compounds as kinase inhibitors” (Development Center for Biotechnology, priority 2011, dated 2014).

Each structure is given as a SMILES string.

One experiment deals with B-Raf (Homo sapiens (Human), UniProt P15056). The experiment is described as follows: Raf kinase assay (B-Raf), [33P] incorporation into MEK1(K97R). In kind it is biochemical. The conditions noted are these: for inhibition at 1 µM: 1.0 μM compound, read-out: B-Raf inhibition at 1.0 μM. Summed up:
(§1)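 Recombinant C-Raf (2 ng) or B-Raf or B-Raf V600E (5 ng each) phosphorylated 500 ng MEK1(K97R) with 8 μM ATP plus [33P]ATP, pH 7.5, 30 min at 30 °C. Filter-captured 33P counted. IC50 from 3-fold compound dilutions run in duplicate.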

The target of another experiment is B-Raf (V600E) (Homo sapiens (Human), UniProt P15056, V600E). Description: Raf kinase assay (B-Raf (V600E)), [33P] incorporation into MEK1(K97R). The format is biochemical. Summed up: as §1
For a further experiment, the target named is EGFR (T790M) kinase (Homo sapiens (Human), UniProt P00533, T790M). The experiment is described as follows: EGFR (T790M) kinase assay. The format is biochemical. On the procedure: C. EGFR (T790M) Kinase Assay
Inhibition of EGFR (T790M) kinase activity by compounds disclosed herein was quantified by measuring the amount of [^33P] incorporated into the substrate in the presence of a test compound. Briefly, a reaction mixture of 25 μL final volume containing 25 ng of EGFR (T790M) kinase (EGFR (T790M) kinase domain alone, Millipore), 5 μg of the substrate [poly(Glu-Tyr), Sigma], kinase reaction buffer (10 mM MOPS pH 7.0, 0.3 mM EDTA, 0.5% glycerol, 0.001% Brij-35, 10 mM MnCl2, 0.1 mg/ml BSA, 100 μM ATP, 0.1 μCi per well [^33P]-γ-ATP (2,500-3,000 Ci/mmol)), and a test compound (100 nM; diluted with 4% DMSO) or DMSO (as the control) was incubated at 30° C. for 60 minutes. The reaction was stopped by adding 5 μL of 3% phosphoric acid solution. The resultant reaction solution was then harvested onto a filter plate (UniFilter-96 GF/B, PerkinElmer), washed 20 times for 5 min with d.d. […] The radioactivity retained on the filter membrane was measured by TopCount™ scintillation detector (PerkinElmer). The results were analyzed by using linear regression software (GraphPad Prism™ 4; GraphPad Software Inc.). The percentage of inhibition of EGFR (T790M) by the test compound was calculated by dividing the retained radioactivity of the test sample with the retained radioactivity of the control sample and shown in Table 4.

A further experiment addresses VEGFR2 kinase (Homo sapiens (Human), UniProt P35968). Description: VEGFR2 kinase assay. In kind it is biochemical. As for the experimental part:
Inhibition of VEGFR2 kinase activity by compounds disclosed herein was quantified by measuring the amount of [^33P] incorporated into the substrate in the presence of a test compound. […] The reaction was then stopped by adding 5 μL of 3% phosphoric acid solution. The resultant solution was transferred to and harvested by a filter plate (UniFilter-96 GF/B, PerkinElmer). The filter plate was then washed 20 times with d.d. H2O for 5 min followed by the addition of 30 μL of MicroScint™-20 Cocktail (PerkinElmer). After the plate was sealed, the retained radioactivity on the filter was counted using a TopCount™ scintillation detector (PerkinElmer). […]

For a further experiment, the target named is Cdk1 kinase (Homo sapiens (Human), UniProt P06493). The experiment is described as follows: CDK1 kinase assay. The format is biochemical. On the procedure: Inhibition of Cdk1 kinase activity by compounds disclosed herein was quantified by measuring the amount of [^33P] incorporated into the substrate in the presence of a test compound. Briefly, a reaction mixture of 25 μL final volume containing 5 ng of Cdk1 kinase (Cdk1 kinase domain alone, Millipore), 3 μg of the substrate [Histone H1], kinase reaction buffer (10 mM MOPS pH 7.0, 0.3 mM EDTA, 0.5% glycerol, 0.001% Brij-35, 0.1 mg/ml BSA, 10 μM ATP, 0.1 μCi per well [^33P]-γ-ATP (2,500-3,000 Ci/mmol)), and a test compound (100 nM, diluted with 4% DMSO) or DMSO (as the control) was incubated at 30° C. for 30 minutes. The reaction was stopped by adding 5 μL of 3% phosphoric acid solution. The resultant reaction solution was then harvested onto a filter plate (UniFilter-96 GF/B, PerkinElmer), washed 20 times for 5 min with d.d. H2O, and followed by the addition of 30 μL of MicroScint™-20 Cocktail (PerkinElmer). The radioactivity retained on the filter membrane was measured by TopCount™ scintillation detector (PerkinElmer). The results were analyzed by using linear regression software (GraphPad Prism™ 4; GraphPad Software Inc.).

The test system of the next experiment is A549. The experiment is described as follows: Anti-proliferative activity, CellTiter-96 assay, A549. The settings on record: Homo sapiens, A549 cells, 72 hours incubation. The format is cell-based. Summed up: (§2)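 Cells in DMEM with 10% FCS at 37° C., 5% CO2, plated at 2000 cells/well for 24 h, then exposed to graded compound concentrations for 72 h. CellTiter-96 Aqueous One reagent added for 4.0 h; viability read as absorbance at 490 nm.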

A further experiment relates to A375. The experiment is described as follows: Anti-proliferative activity, CellTiter-96 assay, A375. In kind it is cell-based. The conditions noted are these: Homo sapiens, A-375, A375 cells, 72 hours incubation. Summed up: as §2
In a further experiment the test system is MDA-MB-231. The experiment is described as follows: Anti-proliferative activity, CellTiter-96 assay, MDA-MB-231. In kind it is cell-based. The conditions noted are these: Homo sapiens, MDA-MB-231 cells, 72 hours incubation. Put shortly: as §2

Sequence of B-Raf (P15056 whole entry): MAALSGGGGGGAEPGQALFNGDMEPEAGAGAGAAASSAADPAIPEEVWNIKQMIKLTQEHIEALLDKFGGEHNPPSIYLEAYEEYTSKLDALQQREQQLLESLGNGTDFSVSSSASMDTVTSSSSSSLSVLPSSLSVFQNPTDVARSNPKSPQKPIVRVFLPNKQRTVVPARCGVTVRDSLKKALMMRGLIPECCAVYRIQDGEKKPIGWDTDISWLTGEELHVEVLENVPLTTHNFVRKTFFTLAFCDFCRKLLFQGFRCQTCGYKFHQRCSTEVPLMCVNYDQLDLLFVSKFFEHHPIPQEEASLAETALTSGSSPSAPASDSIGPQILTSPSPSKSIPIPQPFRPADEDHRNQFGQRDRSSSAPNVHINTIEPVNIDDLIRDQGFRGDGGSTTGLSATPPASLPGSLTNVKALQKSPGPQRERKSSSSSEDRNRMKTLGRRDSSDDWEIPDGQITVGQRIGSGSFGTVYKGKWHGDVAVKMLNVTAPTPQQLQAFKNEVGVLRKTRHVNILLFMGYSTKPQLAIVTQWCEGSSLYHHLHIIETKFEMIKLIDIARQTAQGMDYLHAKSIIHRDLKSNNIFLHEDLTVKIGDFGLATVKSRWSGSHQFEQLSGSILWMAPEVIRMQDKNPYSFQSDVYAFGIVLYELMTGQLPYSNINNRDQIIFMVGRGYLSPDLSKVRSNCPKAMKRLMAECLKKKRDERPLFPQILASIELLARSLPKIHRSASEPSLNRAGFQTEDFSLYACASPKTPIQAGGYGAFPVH
Sequence of VEGFR2 kinase (P35968 834-1162): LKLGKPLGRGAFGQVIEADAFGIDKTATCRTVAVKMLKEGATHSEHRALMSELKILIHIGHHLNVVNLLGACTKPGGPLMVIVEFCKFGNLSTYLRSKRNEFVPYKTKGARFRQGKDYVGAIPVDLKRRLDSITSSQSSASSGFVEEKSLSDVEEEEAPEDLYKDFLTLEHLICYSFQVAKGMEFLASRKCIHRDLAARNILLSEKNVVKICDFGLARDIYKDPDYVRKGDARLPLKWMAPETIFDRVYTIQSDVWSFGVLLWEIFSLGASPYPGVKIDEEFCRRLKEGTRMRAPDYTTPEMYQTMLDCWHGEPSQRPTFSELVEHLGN
Sequence of B-Raf (V600E) (P15056 whole entry V600E): as the sequence (P15056 whole entry) above, with V600E counted along it
Sequence of EGFR (T790M) kinase (P00533 712-979 T790M): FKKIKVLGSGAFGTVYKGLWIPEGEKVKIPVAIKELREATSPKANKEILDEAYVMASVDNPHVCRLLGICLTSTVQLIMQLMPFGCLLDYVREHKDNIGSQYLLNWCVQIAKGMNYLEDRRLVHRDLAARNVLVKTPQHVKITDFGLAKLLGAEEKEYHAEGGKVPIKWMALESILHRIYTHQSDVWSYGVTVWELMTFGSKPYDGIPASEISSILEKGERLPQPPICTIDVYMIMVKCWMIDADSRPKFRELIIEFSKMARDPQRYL
Sequence of Cdk1 kinase (P06493 4-287): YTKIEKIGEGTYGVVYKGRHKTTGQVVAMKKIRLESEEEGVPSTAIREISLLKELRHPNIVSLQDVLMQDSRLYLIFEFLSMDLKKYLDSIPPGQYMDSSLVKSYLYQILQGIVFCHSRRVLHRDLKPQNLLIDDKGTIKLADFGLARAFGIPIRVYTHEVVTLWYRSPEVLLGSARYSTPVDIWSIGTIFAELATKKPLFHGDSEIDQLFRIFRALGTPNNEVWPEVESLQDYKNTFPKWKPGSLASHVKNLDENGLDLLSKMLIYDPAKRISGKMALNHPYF
Sequence of Cdk1 kinase (P14635 whole entry partner, the tested form may be a part): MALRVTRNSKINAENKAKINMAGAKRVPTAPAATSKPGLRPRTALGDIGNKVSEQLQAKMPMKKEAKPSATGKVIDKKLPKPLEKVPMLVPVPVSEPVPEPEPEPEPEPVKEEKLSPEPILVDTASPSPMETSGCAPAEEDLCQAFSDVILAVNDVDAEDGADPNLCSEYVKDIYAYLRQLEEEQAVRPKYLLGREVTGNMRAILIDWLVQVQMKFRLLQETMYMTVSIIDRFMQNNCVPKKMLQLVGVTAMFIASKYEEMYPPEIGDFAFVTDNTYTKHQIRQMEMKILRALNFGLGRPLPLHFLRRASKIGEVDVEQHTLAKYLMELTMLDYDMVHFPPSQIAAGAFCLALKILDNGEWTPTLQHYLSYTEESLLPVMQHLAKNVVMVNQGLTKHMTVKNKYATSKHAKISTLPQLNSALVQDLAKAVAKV

With `COc1cc(-c2ccc3ncnc(Nc4cccc(O)c4)c3c2)ccc1O` [Compound 8, 4-(4-(3-hydroxyphenylamino)quinazolin-6-yl)-2-methoxyphenol], the IC50 (in general, the midpoint of a concentration-inhibition curve) was found to be 30.2 nM against B-Raf; 37.4 nM on B-Raf (V600E); 139 nM at VEGFR2 kinase; 1100 ± 100 nM in the experiment with A549; 900 ± 200 nM in the experiment with A375; 1500 ± 100 nM in the experiment with MDA-MB-231. In addition, the inhibition (usually the drop in the measured response relative to a control, in per cent) at 1 µM amounted to 94.2% on B-Raf, 66% against EGFR (T790M) kinase and 88% on Cdk1 kinase.
As for `COc1cc(-c2ccc3ncnc(Nc4cc(O)ccc4F)c3c2)ccc1O` [Compound 58, 4-(4-(2-fluoro-5-hydroxyphenylamino)quinazolin-6-yl)-2-methoxyphenol], the IC50 against B-Raf was 16.1 nM; at B-Raf (V600E), 23.2 nM; against VEGFR2 kinase, 23.5 nM; with A549, 500 ± 200 nM; in the experiment with A375, 500 ± 100 nM; in the experiment on MDA-MB-231, 800 ± 300 nM. Also, the values for the inhibition at 1 µM on B-Raf, against EGFR (T790M) kinase and against Cdk1 kinase were 92.6%, 60% and 78%, respectively.
